The nature of series [1]: Body weight of the mice in the NOR study. Particulars: mean, N = 16. Type of series: in vivo, C57BL/6J, male. An excerpt:
(§1) Statistical analyses: • Read-outs: DI, N-F, ST, CT, N, F • Unpaired Student's t test: Donep 2 group vs. Control group. • One-way ANOVA, Dunnett test: • NLS-12 groups vs. Control group. • NLS-12 groups vs. Donep 2 group. • Read-outs: DI and N-F, for all groups, paired Student's t test, difference vs. 0. • Body weight: one-way ANOVA.

In another series the target is T1, DAT (h) (Homo sapiens, UniProt Q01959).
T1 construct: Eurofins (contract panel)
In words: Radioligand binding panel, DAT (h) (antagonist radioligand). As to conditions: % inhibition of control specific binding. How it is done:
(§2) Oxafuramine is tested at 10^−5 M, calculated as a % inhibition of control specific binding of a radioactively labeled ligand specific for each target.
(§3) This binding profile panel was broadly defined with roughly an equal number of selective, central and peripheral therapeutically relevant targets, including native animal tissues, radioligands and specific enzymes involved in cell cycle regulation in accordance with Eurofins Standard Operating Procedure (www.eurofins.fr).
(§4) For radioligand binding experiments, the half maximal inhibitory concentration (IC50) and the half maximal effective concentration (EC50) values were determined (via computer software) by nonlinear regression analysis of the competition curves using Hill equation curve fitting. The inhibition constants (Ki) were calculated using the Cheng-Prusoff equation (Ki=IC50/(1+(L/KD)), where L is the concentration of radioligand in the assay, and KD is the affinity of the radioligand for the receptor.
(§5) The results are expressed as a % control specific binding ([measured specific binding/control specific binding]×100) and as a % inhibition of control specific binding (100−[(measured specific binding/control specific binding)×100]) obtained in the presence of the test compounds. […]

Series [2] deals with memory (recognition of the familiar object) in mice. In words: Novel Object Recognition (NOR) test in mice. The format is in vivo, C57BL/6J, male. As to conditions: choice trial, mean, N = 16. How it is done:
The test was carried out in circular boxes (30 cm diameter, 40 cm high). The objects to be discriminated (L≈1≈h≈3-4 cm) differed in both color and shape and were referred as yellow duck and blue lego. They were fixed with a magnet to the floor of the boxes at 5 cm of the wall, 20 cm distant. Apparently, they have no natural significance for mice and they have never been associated with a reinforcement. In order to rule out the possibility of scent traces left on the objects and therefore the dependency of the recognition capacity of mice on the olfactory cue, the objects and the ground of the box were washed with an odorless disinfectant (Sanicid® diluted in water) and dried between each trial. A camcorder was fixed to the ceiling above the box to record the animals' activity. The experiment was analyzed blindly at a later time.
On the week before the test, animals were handled by the experimenter in charge of the experiment in order to be not stressed at the time of testing. For this purpose, the experimenter placed a small amount of litter, and then the mouse on its hand.
The NOR test was completed over five days (see FIG. 1): • Day 1: Habituation trial. Animals were individually placed for a 15-min free exploration session in empty open boxes. • Day 2. Treatment administration and sample trial. […] They were individually placed 30 min after in the apparatus for a 6-min session with two identical objects (Duck, 50% of animals or Lego, 50% of animals). • Day 3. Choice trial. The mice were individually placed for a 6-min session in the apparatus with two objects (Duck and Lego), one of the objects presented in sample trials (termed as familiar objects) and a novel object (Lego, 50% of animals or Duck, 50% of animals).
The sample and choice trials were recorded with the camera located above the apparatus. The time spent by mice in exploring the objects was measured during the sample trial and the choice trial. Exploration of an object was defined as follows: directing the nose to the object at a distance≤2 cm and/or touching it with the nose or forelimbs; turning around or biting the object, or sitting on the object were not considered as exploratory behavior.
• L=exploration time of the left object in the sample trial. • R=exploration time of the right object in the sample trial. • N=exploration time of the new object in the choice trial. • F=exploration time of the familiar object in the choice trial.
• Exploration indices: • ST=L+R=exploration time (left object+right object) in the sample trial. • CT=N+F=exploration time (new object+familiar object) in the choice trial. • Two memory indices: • N-F=difference of exploration time between the new object and the familiar object in the choice trial.
as §1

Another series has as its target T2, NET (h) (Homo sapiens, UniProt P23975).
T2 construct: Eurofins (contract panel)
The series can be described thus: Radioligand binding panel, NET (h) (antagonist radioligand). Particulars: % inhibition of control specific binding. How it is done: as §2, §3, §4, §5

A further series has as its target T3, GABA-A1 (Homo sapiens, UniProt P14867+P47870).
T3 construct: Eurofins (contract panel)
In words: Radioligand binding panel, GABA-A1 (antagonist radioligand). As to conditions: 10^−5 M; % inhibition of control specific binding. How it is done: as §2, §3, §4, §5

In a further series the target is T4, M5 (h) (Homo sapiens, UniProt P08912).
T4 construct: Eurofins (contract panel)
T4 sequence (P08912 1-532): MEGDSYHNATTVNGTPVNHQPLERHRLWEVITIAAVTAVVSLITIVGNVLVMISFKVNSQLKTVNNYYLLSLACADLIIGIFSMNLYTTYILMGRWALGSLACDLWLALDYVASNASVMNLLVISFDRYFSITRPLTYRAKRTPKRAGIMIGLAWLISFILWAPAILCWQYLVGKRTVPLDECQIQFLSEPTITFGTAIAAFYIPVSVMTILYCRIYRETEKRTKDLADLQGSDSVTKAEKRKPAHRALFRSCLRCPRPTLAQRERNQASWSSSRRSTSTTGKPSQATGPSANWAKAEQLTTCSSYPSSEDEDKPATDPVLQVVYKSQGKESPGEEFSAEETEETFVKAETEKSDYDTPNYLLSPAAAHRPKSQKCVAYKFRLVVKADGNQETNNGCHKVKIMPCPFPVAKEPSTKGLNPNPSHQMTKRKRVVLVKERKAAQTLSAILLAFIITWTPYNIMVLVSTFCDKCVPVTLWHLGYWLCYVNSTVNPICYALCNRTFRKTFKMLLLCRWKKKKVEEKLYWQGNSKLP
In words: Radioligand binding panel, M5 (h) (antagonist radioligand). Particulars: % inhibition of control specific binding. How it is done:
as §2, §3, §4, §5

For orientation: inhibition means the relative decrease from the control value, in per cent. High values mean a response far below the control, low ones a response near the control. By % Inhibition is commonly meant the percentage by which the read-out fell short of the control.

T1 sequence (Q01959 whole entry): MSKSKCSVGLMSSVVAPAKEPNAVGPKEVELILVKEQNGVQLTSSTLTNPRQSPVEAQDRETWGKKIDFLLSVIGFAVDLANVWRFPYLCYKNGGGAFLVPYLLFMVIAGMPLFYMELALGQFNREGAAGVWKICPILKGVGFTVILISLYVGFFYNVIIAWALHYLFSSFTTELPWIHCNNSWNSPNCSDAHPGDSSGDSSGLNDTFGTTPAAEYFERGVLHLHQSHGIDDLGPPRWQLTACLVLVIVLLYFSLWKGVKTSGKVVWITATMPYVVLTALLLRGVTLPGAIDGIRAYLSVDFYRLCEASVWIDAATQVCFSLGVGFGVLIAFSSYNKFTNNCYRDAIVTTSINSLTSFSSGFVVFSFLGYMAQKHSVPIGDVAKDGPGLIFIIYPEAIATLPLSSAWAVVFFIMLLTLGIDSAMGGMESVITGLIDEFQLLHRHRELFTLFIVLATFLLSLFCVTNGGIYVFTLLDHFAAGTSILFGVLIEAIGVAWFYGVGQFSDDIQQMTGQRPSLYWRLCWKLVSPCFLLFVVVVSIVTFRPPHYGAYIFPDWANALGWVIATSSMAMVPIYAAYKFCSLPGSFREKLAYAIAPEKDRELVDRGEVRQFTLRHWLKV
T2 sequence (P23975 whole entry): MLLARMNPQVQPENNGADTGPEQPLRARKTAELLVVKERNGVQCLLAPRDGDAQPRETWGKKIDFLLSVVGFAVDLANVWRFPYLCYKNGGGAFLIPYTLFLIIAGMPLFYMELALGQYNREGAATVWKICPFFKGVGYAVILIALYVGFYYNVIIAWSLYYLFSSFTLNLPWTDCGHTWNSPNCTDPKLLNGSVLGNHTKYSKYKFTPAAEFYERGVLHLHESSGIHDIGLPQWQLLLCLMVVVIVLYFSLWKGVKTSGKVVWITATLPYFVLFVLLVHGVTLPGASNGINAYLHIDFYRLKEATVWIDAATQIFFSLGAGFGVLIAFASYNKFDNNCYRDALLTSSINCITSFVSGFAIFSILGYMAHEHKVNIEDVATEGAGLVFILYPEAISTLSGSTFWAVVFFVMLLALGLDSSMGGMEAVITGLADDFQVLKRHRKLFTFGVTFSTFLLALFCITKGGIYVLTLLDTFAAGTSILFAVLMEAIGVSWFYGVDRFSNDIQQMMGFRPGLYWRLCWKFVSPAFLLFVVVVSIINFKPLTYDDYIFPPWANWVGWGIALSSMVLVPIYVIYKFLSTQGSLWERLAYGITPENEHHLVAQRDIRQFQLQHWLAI
T3 sequence (P14867 28-456): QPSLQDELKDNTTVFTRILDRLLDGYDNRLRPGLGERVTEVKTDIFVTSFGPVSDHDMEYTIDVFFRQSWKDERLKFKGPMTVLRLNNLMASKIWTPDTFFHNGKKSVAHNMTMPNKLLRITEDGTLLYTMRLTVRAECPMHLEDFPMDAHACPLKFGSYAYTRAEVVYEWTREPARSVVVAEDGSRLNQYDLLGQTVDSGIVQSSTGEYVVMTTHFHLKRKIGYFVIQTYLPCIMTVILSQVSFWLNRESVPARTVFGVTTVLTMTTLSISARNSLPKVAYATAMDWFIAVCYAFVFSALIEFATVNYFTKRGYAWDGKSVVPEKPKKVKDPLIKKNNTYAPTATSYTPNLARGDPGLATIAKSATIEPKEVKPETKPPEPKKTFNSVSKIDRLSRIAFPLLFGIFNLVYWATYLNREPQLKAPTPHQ
T3 sequence (P47870 25-512 limits assumed): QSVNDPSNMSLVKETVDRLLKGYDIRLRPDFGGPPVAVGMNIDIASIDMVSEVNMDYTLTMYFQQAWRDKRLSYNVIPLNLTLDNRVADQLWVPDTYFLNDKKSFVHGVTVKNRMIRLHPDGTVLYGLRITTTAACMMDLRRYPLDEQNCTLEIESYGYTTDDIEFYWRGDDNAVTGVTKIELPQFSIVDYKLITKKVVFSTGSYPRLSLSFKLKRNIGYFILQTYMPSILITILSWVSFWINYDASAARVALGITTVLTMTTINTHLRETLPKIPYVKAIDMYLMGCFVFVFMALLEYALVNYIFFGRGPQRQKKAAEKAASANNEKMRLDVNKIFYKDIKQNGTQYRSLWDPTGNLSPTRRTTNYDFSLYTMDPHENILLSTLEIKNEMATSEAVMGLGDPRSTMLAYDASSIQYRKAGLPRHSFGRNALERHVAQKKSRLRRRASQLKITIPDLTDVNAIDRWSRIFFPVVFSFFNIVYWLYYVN
T3 sequence (P18507 40-475 partner): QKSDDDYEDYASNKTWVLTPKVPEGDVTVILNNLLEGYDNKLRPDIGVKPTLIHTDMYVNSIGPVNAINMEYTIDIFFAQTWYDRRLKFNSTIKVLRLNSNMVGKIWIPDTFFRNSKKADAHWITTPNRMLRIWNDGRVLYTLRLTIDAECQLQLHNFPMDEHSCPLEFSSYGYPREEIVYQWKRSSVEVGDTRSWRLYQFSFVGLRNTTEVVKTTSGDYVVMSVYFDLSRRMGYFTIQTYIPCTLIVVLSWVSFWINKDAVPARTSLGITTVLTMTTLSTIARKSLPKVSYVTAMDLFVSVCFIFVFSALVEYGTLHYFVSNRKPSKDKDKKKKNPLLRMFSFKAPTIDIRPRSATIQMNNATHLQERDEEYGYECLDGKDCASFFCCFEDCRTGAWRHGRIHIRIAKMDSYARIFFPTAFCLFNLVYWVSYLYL

For `CCN[C@H](Cc1ccccc1)[C@H]1CCCO1` [Oxafuramine, (1R)—N-ethyl-1-[(2R)-oxolan-2-yl]-2-phenylethanamine], the “BW Body weight” value stood at 22.8 g in series [1] (NLS-12 1 mg/kg i.p. group), 23.5 g in series [1] (NLS-12 4 mg/kg i.p. group) and 22.9 g in series [1] (NLS-12 8 mg/kg i.p. group). Further, the inhibition at 10 µM is 94.1% on DAT (h) (10^−5 M), 53.3% at NET (h) (10^−5 M), 19.2% at GABA-A1 and around 25% on M5 (h) (10^−5 M). In addition, the “% Inhibition at 10^−5M, DAT (h) (antagonist radioligand)” value on DAT (h) was “appreciable potencies”. Moreover, the “F Exploration time of familiar object” value was 12.0 s in series [2] (NLS-12 1 mg/kg i.p.), 11.0 s in series [2] (NLS-12 4 mg/kg i.p.) and 9.9 s in series [2] (NLS-12 8 mg/kg i.p.). Moreover, the figures for the “N Exploration time of novel object” value in series [2] (NLS-12 1 mg/kg i.p.), in series [2] (NLS-12 4 mg/kg i.p.) and in series [2] (NLS-12 8 mg/kg i.p.) were 12.6 s, 14.7 s and 15.9 s, respectively. In addition, the “% Inhibition at 10^−5M, NET (h) (antagonist radioligand)” value on NET (h) was “appreciable potencies”. Further, the “% Inhibition at 10^−5M, M5 (h) (antagonist radioligand)” value on M5 (h) was 25.4%.

The values are drawn from patent US20250268859A1, “OXAFURAMINE, (1R)-N-ETHYL-1-[(2R)-OXOLAN-2-YL]-2-[…], HYDROCHLORIDE AND DERIVATIVES THEREOF FOR TREATING ALZHEIMER'S DISEASE (AD), […] […], […] WITH LEWY BODIES (DLB), MIXED […], FRON[…] DEGENERATION (FTLD), AND PARKINSON'S DISEASE (PD)” (NLS Pharmaceutics AG, priority 2021, published 2025).
